Test results reported in publication PMC6576746, “Rational discovery of dual-indication multi-target PDE/Kinase inhibitor for precision anti-cancer therapy using structural systems pharmacology” (PLoS Computational Biology, 2019).

Experiments:
Test in all cases: cells
Set-up in all cases: species or system panel of human cancer cell lines; Eurofins OncoPanel proliferation; nuclei count by high-content fluorescence imaging, 10-point dose response
A-253 = conditions: Homo sapiens, A253, 72 h, cell count, 3 days
Outline: (§1)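 Cells in RPMI 1640/10% FBS or special medium received compound the day after seeding, with a time-zero plate; 3-day incubation at 37°C, 5% CO2. Nuclei imaged by fluorescence microscopy; 10 half-log doses from 100 μM, 0.1% DMSO. EC50, IC50, GI50 and activity area (0–10) from curve fits.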

BT-549 = conditions: Homo sapiens, BT-549, 72 h, cell count, 3 days
Outline: as §1

DOHH-2 = conditions: Homo sapiens, DOHH-2, 72 h, cell count, 3 days
Outline: as §1

DoTc2 4510 = conditions: Homo sapiens, DoTc2-4510, 72 h, cell count, 3 days
Outline: as §1

HT = conditions: Homo sapiens, HT, 72 h, cell count, 3 days
Outline: as §1

HUH-6 Clone 5 = conditions: HUH-6-clone5, 72 h, cell count, 3 days
Outline: as §1

Hs 895.T = conditions: 72 h, cell count, 3 days
Outline: as §1

NCI-H520 = conditions: Homo sapiens, NCI-H520, 72 h, cell count, 3 days
Outline: as §1

REC-1 = conditions: Homo sapiens, Rec1, 72 h, cell count, 3 days
Outline: as §1

RS4;11 = conditions: Homo sapiens, RS4-11, 72 h, cell count, 3 days
Outline: as §1

SK-LMS-1 = conditions: Homo sapiens, SK-LMS-1, 72 h, cell count, 3 days
Outline: as §1

SNB-19 = conditions: Homo sapiens, SNB-19, 72 h, cell count, 3 days
Outline: as §1

SUP-T1 = conditions: Homo sapiens, SUP-T1, 72 h, cell count, 3 days
Outline: as §1

SaOS2 = conditions: Homo sapiens, SAOS-2, 72 h, cell count, 3 days
Outline: as §1

[1] = 50% of maximum possible response

Work on `C[C@@H]1CC(=O)NN=C1c1ccc(NN=C(C#N)C#N)cc1` [levosimendan] yielded an IC50 (A-253; [1]) of 62.4 µM, a GI50 (A-253; corrected for time zero) of 41.7 µM and an EC50 (A-253; curve inflection point) of 62.4 µM. For the same compound, the IC50 (BT-549; [1]) was 15.4 µM, the GI50 (BT-549; corrected for time zero) was 11.3 µM and the EC50 (BT-549; curve inflection point) was 12.7 µM. The IC50 (DOHH-2; [1]) was 15.8 µM, the GI50 (DOHH-2; corrected for time zero) was 14.4 µM and the EC50 (DOHH-2; curve inflection point) was 15.8 µM. For the same compound, the IC50 (DoTc2 4510; [1]) was 14.6 µM, the GI50 (DoTc2 4510; corrected for time zero) was 11.4 µM and the EC50 (DoTc2 4510; curve inflection point) was 10.8 µM. For the same compound, the IC50 (HT; [1]) was 69.4 µM, the GI50 (HT; corrected for time zero) was 56.9 µM and the EC50 (HT; curve inflection point) was 69.4 µM. The IC50 (HUH-6 Clone 5; [1]) was 27.1 µM, the GI50 (HUH-6 Clone 5; corrected for time zero) was 20 µM and the EC50 (HUH-6 Clone 5; curve inflection point) was 27.1 µM. For the same compound, the IC50 (Hs 895.T; [1]) was > 100 µM, the GI50 (Hs 895.T; corrected for time zero) was 32.8 µM and the EC50 (Hs 895.T; curve inflection point) was > 100 µM. For the same compound, the IC50 (NCI-H520; [1]) was > 100 µM, the GI50 (NCI-H520; corrected for time zero) was > 100 µM and the EC50 (NCI-H520; curve inflection point) was > 100 µM. It also gave an IC50 (REC-1; [1]) of 25.2 µM, a GI50 (REC-1; corrected for time zero) of 9.04 µM and an EC50 (REC-1; curve inflection point) of 25.2 µM. For the same compound, the IC50 (RS4;11; [1]) was 29.7 µM, the GI50 (RS4;11; corrected for time zero) was 19.6 µM and the EC50 (RS4;11; curve inflection point) was 25.4 µM. The IC50 (SK-LMS-1; [1]) was 27.1 µM, the GI50 (SK-LMS-1; corrected for time zero) was 21.5 µM and the EC50 (SK-LMS-1; curve inflection point) was 27.1 µM. The IC50 (SNB-19; [1]) was > 100 µM, the GI50 (SNB-19; corrected for time zero) was > 100 µM and the EC50 (SNB-19; curve inflection point) was > 100 µM. For the same compound, the IC50 (SUP-T1; [1]) was 15.6 µM, the GI50 (SUP-T1; corrected for time zero) was 11 µM and the EC50 (SUP-T1; curve inflection point) was 15.6 µM. The IC50 (SaOS2; [1]) was 54.5 µM, the GI50 (SaOS2; corrected for time zero) was 35.7 µM and the EC50 (SaOS2; curve inflection point) was 54.5 µM.
